Data set [1] deals with T. b. brucei s427. Nature of the data set: resazurin drug sensitivity assay, T. b. brucei s427 wild-type bloodstream forms. In kind it is cell-based, Trypanosoma brucei brucei. The conditions noted are these: for T. b. brucei s427 SI: SI = EC50 (HEK)/EC50(parasite); for EC50: Trypanosoma brucei, read-out: T. b. brucei s427 EC50. For orientation: Resazurin is reduced to fluorescent resorufin, in cell work by metabolically active cells.

A further data set concerns HEK 293 cells. The data set is described as follows: toxicity assay on HEK 293 cells (Alamar Blue). The settings on record: for EC50: read-out: HEK 293 EC50, average ± SEM.
Data set [2] has as its system trypanosomes of the Trypanozoon subgenus (T. b. brucei, T. evansi and T. equiperdum). The data set is described as follows: resazurin assay, summary over Trypanozoon subgenus trypanosomes. It counts as cell-based, Trypanosoma. The settings on record: for EC50: Trypanosoma brucei, T. b. brucei s427, B48, T. evansi, T. equiperdum, read-out: EC50 values against trypanosomes of the Trypanozoon subgenus (range).

The test system of a further data set is T. equiperdum (BoTat1). The data set is described as follows: resazurin drug sensitivity assay, T. equiperdum. The settings on record: for T. equiperdum RF: RF = EC50 (parasite)/EC50(s427 WT); for T. equiperdum SI: SI = EC50 (HEK)/EC50(parasite); for EC50: average ± SEM. In kind it is cell-based, Trypanosoma equiperdum.
A further data set deals with T. b. brucei B48. Nature of the data set: microbe, parasite or virus in culture. In kind it is cell-based, Trypanosoma brucei brucei. The conditions noted are these: for T. b. brucei B48 RF: RF = EC50 (parasite)/EC50(s427 WT); for T. b. brucei B48 SI: SI = EC50 (HEK)/EC50(parasite); for EC50: average ± SEM.
Data set [3] has as its system Leishmania mexicana promastigotes. The data set is described as follows: resazurin drug sensitivity assay, L. mexicana promastigotes. In kind it is cell-based. The conditions noted are these: for L. mexicana SI: SI = EC50 (HEK)/EC50(parasite).
In data set [4] the test system is Trypanosoma congolense (IL3000). Nature of the data set: resazurin drug sensitivity assay, T. congolense. The settings on record: for T. congolense RF: RF = EC50 (parasite)/EC50(s427 WT); for T. congolense SI: SI = EC50 (HEK)/EC50(parasite); for EC50: Trypanosoma congolense, average ± SEM. It counts as cell-based.
In data set [5] the test system is kinetoplastid parasites (trypanosomes and L. mexicana). The data set is described as follows: resazurin assay, summary of anti-kinetoplastid activity across the board. It counts as cell-based. The conditions noted are these: Leishmania mexicana, read-out: EC50, anti-kinetoplastid activity across the board (range).
The subject of a further data set is T. evansi (AnTat 3/3). The data set is described as follows: resazurin drug sensitivity assay, T. evansi. It counts as cell-based, Trypanosoma evansi. The settings on record: for T. evansi RF: RF = EC50 (parasite)/EC50(s427 WT); for T. evansi SI: SI = EC50 (HEK)/EC50(parasite); for EC50: Trypanosoma evansi, average ± SEM.
The test system of data set [6] is T. b. brucei s427. Further details: method as in earlier work. The settings on record: cited from earlier work.
In data set [7] the test system is T. b. brucei s427. Further details: method as in PMID 27313159. The settings on record: cited from earlier work.
The next data set relates to all trypanosome species. The data set is described as follows: resazurin assay, summary over trypanosome species. It counts as cell-based, Trypanosoma.
In data set [8] the test system is T. b. brucei s427. On the set-up: method as in doi:10.3390/M1070. The settings on record: read-out: EC50 against T. b. brucei s427; cited from earlier work.
Another data set concerns macrophages RAW264.7. On the set-up: method as in doi:10.3390/M1070. The settings on record: normal cell lines; cited from earlier work.
The mark [9] stands for this setting: average ± SEM, at least three independent determinations.
[10] abbreviates: Trypanosoma brucei, read-out: T. b. brucei B48 EC50, multi-drug-resistant clone.
[11] abbreviates: Leishmania mexicana, promastigotes, average ± SEM, read-out: L. mexicana EC50.

Read-outs that look alike come from different tables or passages of the source.

For orientation: EC50 means the concentration needed to bring the measured effect to its halfway point.

As for `COc1ccc2c(c1OC)CN(C)c1c-2ccc2cc3c(cc12)OCO3` [Compound 6, dihydrochelerythrin], in the data set with T. b. brucei s427 [1], the “T. b. brucei s427 SI” value is on record as 68.0. For the same compound, the EC50 in the data set on T. b. brucei s427 [1] (setting [9]) was 1.37 ± 0.43 µM; in the data set with HEK 293 cells, 94.4 ± 23.2 µM; in data set [2], 1.37 to 3.09 µM; in the data set on T. equiperdum (BoTat1) (Trypanosoma equiperdum), 3.09 ± 0.52 µM; in the data set with T. b. brucei B48 (setting [10]), 2.56 µM; in the data set on T. b. brucei B48 (read-out: T. b. brucei B48 EC50, multi-drug-resistant clone), 2.55 ± 0.29 µM. For the same compound, the EC50 was 5.4 ± 0.6 µM in data set [3] (setting [11]); 5.44 ± 0.57 µM in [3] (promastigotes, average ± SEM, read-out: L. mexicana EC50); 8.3 ± 0.57 µM in data set [4]; 1.4 to 8.3 µM in data set [5]; 1.09 ± 0.06 µM in the data set on T. evansi (AnTat 3/3). For the same compound, in the data set on T. equiperdum (BoTat1), the “T. equiperdum RF” value is 2.2. Further, the “T. equiperdum SI” value in the data set with T. equiperdum (BoTat1) was 30.4. Moreover, the “T. b. brucei B48 RF” value in the data set on T. b. brucei B48 is recorded as 1.8. Moreover, the “T. b. brucei B48 SI” value in the data set on T. b. brucei B48 is 37.0. In addition, the “L. mexicana SI” value in data set [3] amounted to 18. Besides, the “T. congolense RF” value in [4] is listed as 6.0. Also, the “T. congolense SI” value in data set [4] is recorded as 11.4. Also, the “T. evansi RF” value with T. evansi (AnTat 3/3) turned out to be 0.8. The “T. evansi SI” value in the data set with T. evansi (AnTat 3/3) worked out at 87.
`COc1ccc2c(c1OC)C(CC(C)=O)N(C)c1c-2ccc2cc3c(cc12)OCO3` (stereo not shown) [6-Acetonyl-5,6-dihydrochelerythrine]: the “activity against T. b. brucei s427” value with T. b. brucei s427 [6] was “no significant activity”.
Take `CC(=O)O[C@@H]1[C@H]2[C@H]3[C@H]([C@H](OC(C)=O)[C@H](OC(C)=O)[C@]2(C)[C@@H]2[C@@H]1[C@]1(C)C(=C[C@H]2C)OC(=O)[C@@]1(C)O)[C@]1(C)[C@H](C[C@@H]2O[C@@H]2[C@@H]1OC(C)=O)C(=O)[C@@H]3O` [Compound 3, taccalonolide A]: the “T. b. brucei s427 SI” value with T. b. brucei s427 [1] is more than 2.2. Besides, the EC50 in the data set with T. b. brucei s427 [1] (setting [9]) is 64.7 ± 21.2 µM; in the data set on HEK 293 cells, more than 143 µM; in data set [2], 45.4 to 66.3 µM; in the data set with T. equiperdum (BoTat1) (Trypanosoma equiperdum), 55.8 µM; with T. b. brucei B48 (setting [10]), 45.4 ± 4.1 µM; in data set [3] (setting [11]), more than 285 µM. For the same compound, the EC50 in data set [4] turned out to be 105 ± 41 µM; with T. evansi (AnTat 3/3), 66.3 ± 9.5 µM. The “RF (cross-resistance) with B48, T. evansi and T. equiperdum” value in data set [2] (relative to s427) is reported as not above 1. Also, in the data set with T. equiperdum (BoTat1), the “T. equiperdum RF” value was determined as 0.86. In addition, the “T. equiperdum SI” value with T. equiperdum (BoTat1) was more than 2.6. Further, the “activity against T. b. brucei s427” value is on record as 11.42 µg/mL in the data set with T. b. brucei s427 [7] and 16.3 µM with T. b. brucei s427 [7] (printed in brackets beside the µg/mL value). Moreover, the “T. b. brucei B48 RF” value in the data set on T. b. brucei B48 was 0.7. Further, the “T. b. brucei B48 SI” value with T. b. brucei B48 was more than 3.1. The “L. mexicana EC50” value in data set [3] (promastigotes, average ± SEM) was “low activity”. Further, in data set [4], the “T. congolense RF” value worked out at 1.6. For the same compound, in data set [4], the “T. congolense SI” value is more than 1.4. In the data set on T. evansi (AnTat 3/3), the “T. evansi RF” value came out at 1.0. Further, the “T. evansi SI” value with T. evansi (AnTat 3/3) is on record as more than 2.2.
On to `CC(C)CNC(=O)/C=C/c1ccc2c(c1)OCO2` [Compound 7, fagaramide], for which the “T. b. brucei s427 SI” value in the data set with T. b. brucei s427 [1] was 20.4. Also, the EC50 in the data set with T. b. brucei s427 [1] was 17.8 ± 7.3 µM; with HEK 293 cells, 364 ± 44 µM; with T. equiperdum (BoTat1) (Trypanosoma equiperdum), 27.1 ± 0.1 µM; with all trypanosome species (Trypanosoma, read-out: EC50 against all trypanosome species (range)) it was 10.9 to 34.4 µM; with T. b. brucei s427 [8] it was 7.3 µM; with T. b. brucei B48 (setting [10]), 10.9 ± 0.4 µM. In addition, the EC50 is 13.3 ± 0.4 µM in [3] (setting [11]); 34.4 ± 5.7 µM in data set [4]; 10.9 to 34.4 µM in data set [5]; 10.9 ± 0.4 µM in the data set with T. evansi (AnTat 3/3); 215 µM in the data set with macrophages RAW264.7. In the data set with T. equiperdum (BoTat1), the “T. equiperdum RF” value is recorded as 1.5. Also, in the data set on T. equiperdum (BoTat1), the “T. equiperdum SI” value turned out to be 13.4. Further, in the data set with T. b. brucei B48, the “T. b. brucei B48 RF” value is given as 0.6. Moreover, the “T. b. brucei B48 SI” value in the data set with T. b. brucei B48 was 33.8. Further, the “L. mexicana SI” value in data set [3] is recorded as 27. The “T. congolense RF” value in data set [4] was 1.9. For the same compound, in data set [4], the “T. congolense SI” value amounted to 10.6. Also, the “T. evansi RF” value in the data set with T. evansi (AnTat 3/3) is 0.6. Further, the “T. evansi SI” value in the data set with T. evansi (AnTat 3/3) was 33.0.
`CC(=O)O[C@H]1CC[C@]2(C)[C@H]3CC[C@]4(C)C(=CC[C@@]5(C)CCC(C)(C)C[C@H]54)[C@]3(C)CC[C@H]2C1(C)C` [Compound 5, taraxerol acetate]: in the data set on T. b. brucei s427 [1], the “T. b. brucei s427 SI” value is more than 3.1. For the same compound, the EC50 is 138 ± 61 µM with T. b. brucei s427 [1]; more than 427 µM in the data set with HEK 293 cells; approximately 20 µM with T. equiperdum (BoTat1) (Trypanosoma equiperdum); 21.3 ± 0.3 µM with T. equiperdum (BoTat1); more than 60 µM with all trypanosome species (Trypanosoma equiperdum, all but T. equiperdum, read-out: EC50 against most trypanosome species); 128 ± 5 µM with T. b. brucei B48 (setting [10]). For the same compound, the EC50 is more than 427 µM in data set [3] (Leishmania mexicana, read-out: L. mexicana EC50, promastigotes, average ± SEM); 178 ± 14 µM in data set [4]; 62.9 ± 1.5 µM in the data set on T. evansi (AnTat 3/3). Also, in the data set on HEK 293 cells (highest tested concentration 100 or 200 µg/mL (1: 300 µM; 4: 140 µM; 5: 427 µM)), the “toxicity to HEK 293 cells at the highest concentration tested” value is “not toxic”. Moreover, in the data set with T. equiperdum (BoTat1), the “T. equiperdum RF” value turned out to be 0.13. Moreover, the “T. equiperdum SI” value with T. equiperdum (BoTat1) is more than 20. Besides, the “T. b. brucei B48 RF” value with T. b. brucei B48 was found to be 0.75. Also, the “T. b. brucei B48 SI” value in the data set on T. b. brucei B48 was more than 3.4. The “T. congolense RF” value in data set [4] is 1.1. In the data set on T. evansi (AnTat 3/3), the “T. evansi RF” value stood at 0.4. Moreover, in the data set on T. evansi (AnTat 3/3), the “T. evansi SI” value was more than 6.8.

The values above are taken from publication PMC12156181, “Antitrypanosomal and Antileishmanial Activities of Tacca leontopetaloides Tubers and Zanthoxylum zanthoxyloides Stem Bark” (Molecules, 2025).
